≈ marks a conversion by molar mass, not a printed value. Calls of active or inactive are those of the source. The calls are words filed in the database; no cut-off is given here.
Tests used:
[1] = Cytotoxicity against mouse RAW264.7 cells assessed as cell viability at 128 uM incubated for 4 hrs by MTT assay relative to control; assay type: toxicity, cell-based; details: read-out: Activity
Escherichia coli [2] = assay: Induction of ROS generation in Escherichia coli K88 assessed as increase in fluorescence intensity incubated for 1 hr by DCFH-DA dye based analysis; assay type: functional, organism-based
Escherichia coli [3] = assay: Induction of resistance development in Escherichia coli K88 at sub-MIC measured after 20 passages; assay type: functional, organism-based
Escherichia coli [4] = assay: Antibacterial activity against Escherichia coli K88 infected in ICR mouse model of peritoneal sepsis assessed as reduction in blood TNF-alpha level at 20 mg/kg, ip measured after 10 hrs; assay type: functional, organism-based
[5] = Selectivity ratio of MIC for antibacterial activity against Enterococcus faecalis 29212 to MIC for antibacterial activity against Escherichia coli K95; assay type: functional
Bacteria [6] = assay: Antibacterial activity against bacterial cells at pH 2; assay type: functional
Escherichia coli [7] = assay: Antibacterial activity against Escherichia coli K88 infected in ICR mouse model of peritoneal sepsis assessed as reduction in vascular bruising in liver at 20 mg/kg, ip measured after 10 hrs by H and E staining based analysis; assay type: functional, organism-based
Escherichia coli [8] = assay: Antibacterial activity against Escherichia coli K88 infected in ICR mouse model of peritoneal sepsis assessed as bacterial load reduction in liver at 20 mg/kg, ip measured after 10 hrs; assay type: functional, organism-based
Escherichia coli [9] = assay: Antibacterial activity against Escherichia coli K88 infected in ICR mouse model of peritoneal sepsis assessed as bacterial load reduction in lung at 20 mg/kg, ip measured after 10 hrs; assay type: functional, organism-based
Lactococcus lactis = assay: Antibacterial activity against Lactococcus lactis NZ9000 incubated for 12 to 18 hrs by microbroth dilution method; assay type: functional; details: time 12-18 hrs
[10] = Hydrophobicity of compound; assay type: physicochemical
[11] = Selectivity ratio of MIC for antibacterial activity against Lactococcus lactis NZ9000 to MIC for antibacterial activity against Escherichia coli K88; assay type: functional
Escherichia coli [12] = assay: Induction of inner membrane permeability in Escherichia coli K88 assessed as increase in ONP level at 2 uM; assay type: functional, organism-based
Staphylococcus aureus [13] = assay: Antibacterial activity against Staphylococcus aureus 25923 incubated for 12 to 18 hrs by microbroth dilution method; assay type: functional; details: time 12-18 hrs
[14] = Cytotoxicity against porcine IPEC-J2 cells assessed as cell viability at 128 uM incubated for 4 hrs by MTT assay relative to control; assay type: toxicity, cell-based, Sus scrofa; details: pig, read-out: Activity
Bacteria [15] = assay: Antibacterial activity against bacterial cells at pH 2 to 12; assay type: functional
[16] = Antibacterial activity against Salmonella choleraesuis 21493 incubated for 12 to 18 hrs by microbroth dilution method; assay type: functional, Salmonella enterica subsp. enterica serovar Choleraesuis; details: Salmonella enterica, time 12-18 hrs
[17] = Toxicity in ICR mouse assessed as change in serum BUN level at 10 to 40 mg/kg, ip treated for 3 days consecutively; assay type: organism-based; details: in vivo, 72 h, dose 10-40 mg/kg, time 3 day
Enterococcus faecalis = assay: Antibacterial activity against Enterococcus faecalis 29212 incubated for 12 to 18 hrs by microbroth dilution method; assay type: functional; details: time 12-18 hrs
[18] = Toxicity in ICR mouse assessed as change in serum ALP level at 10 to 40 mg/kg, ip treated for 3 days consecutively; assay type: organism-based; details: in vivo, 72 h, dose 10-40 mg/kg, time 3 day
[19] = Selectivity ratio of MIC for antibacterial activity against Lactobacillus rhamnosus 7469 to MIC for antibacterial activity against Escherichia coli K89; assay type: functional
[20] = Effect on secondary structure of compound in 50 percent TFE assessed as formation of alpha-helical conformation at 100 uM by CD analysis; assay type: physicochemical
Escherichia coli [21] = assay: Antibacterial activity against Escherichia coli K88 infected in ICR mouse model of peritoneal sepsis assessed as reduction in necrosis in renal tubular epithelial cells at 20 mg/kg, ip measured after 10 hrs by H and E staining based analysis; assay type: functional, organism-based
[22] = system: Lactiplantibacillus plantarum; assay: Antibacterial activity against Lactobacillus plantarum 8014 incubated for 12 to 18 hrs by microbroth dilution method; assay type: functional; details: time 12-18 hrs
Escherichia coli [23] = assay: Antibacterial activity against Escherichia coli K88 incubated for 12 to 18 hrs by microbroth dilution method; assay type: functional; details: time 12-18 hrs
[24] = Toxicity in ICR mouse assessed as change in serum TBIL level at 10 to 40 mg/kg, ip treated for 3 days consecutively; assay type: organism-based; details: in vivo, 72 h, dose 10-40 mg/kg, time 3 day
[25] = Selectivity ratio of MIC for antibacterial activity against Staphylococcus aureus 29213 to MIC for antibacterial activity against Escherichia coli K94; assay type: functional
Bacteria [26] = assay: Antibacterial activity against bacterial cells at 1 to 128 uM in presence of NaCl; assay type: functional, organism-based; details: dose 1-128 µM
Escherichia coli [27] = assay: Inhibition of DNA migration in Escherichia coli K88 at 16 uM incubated for 40 mins by agarose gel electrophoresis.; assay type: functional, organism-based
[28] = Toxicity in ICR mouse assessed as hunchback posture at 40 mg/kg, ip measured for 30 to 4 hrs; assay type: organism-based; details: in vivo, time 30-4 hrs
Escherichia coli [29] = assay: Antibacterial activity against Escherichia coli K88 infected in ICR mouse model of peritoneal sepsis assessed as reduction in blood IL-1beta level at 20 mg/kg, ip measured after 10 hrs; assay type: functional, organism-based
Salmonella typhimurium = assay: Antibacterial activity against Salmonella typhimurium 7731 incubated for 12 to 18 hrs by microbroth dilution method; assay type: functional, Salmonella enterica subsp. enterica serovar Typhimurium; details: Salmonella enterica, time 12-18 hrs
Bacteria [30] = assay: Antibacterial activity against bacterial cells at pH 12; assay type: functional
Escherichia coli [31] = assay: Antibacterial activity against Escherichia coli 1515 incubated for 12 to 18 hrs by microbroth dilution method; assay type: functional; details: time 12-18 hrs
[32] = system: Lacticaseibacillus rhamnosus; assay: Antibacterial activity against Lactobacillus rhamnosus 7469 incubated for 12 to 18 hrs by microbroth dilution method; assay type: functional; details: time 12-18 hrs
[33] = Selectivity ratio of MIC for antibacterial activity against Staphylococcus epidermidis 12228 to MIC for antibacterial activity against Escherichia coli K91; assay type: functional
[34] = Toxicity in ICR mouse assessed as change in serum CREA level at 10 to 40 mg/kg, ip treated for 3 days consecutively; assay type: organism-based; details: in vivo, 72 h, dose 10-40 mg/kg, time 3 day
Staphylococcus aureus [35] = assay: Antibacterial activity against Staphylococcus aureus 29213 incubated for 12 to 18 hrs by microbroth dilution method; assay type: functional; details: time 12-18 hrs
Escherichia coli [36] = assay: Induction of outer membrane permeability in Escherichia coli K88 assessed as NPN leakage at 2 uM relative to control; assay type: functional
[37] = Selectivity ratio of MIC for antibacterial activity against Staphylococcus aureus 25923 to MIC for antibacterial activity against Escherichia coli K93; assay type: functional
[38] = Selectivity ratio of MIC for antibacterial activity against Lactobacillus plantarum 8014 to MIC for antibacterial activity against Escherichia coli K90; assay type: functional
[39] = Selectivity ratio of MIC for antibacterial activity against Escherichia coli 078 to MIC for antibacterial activity against Escherichia coli K101; assay type: functional
Escherichia coli [40] = assay: Antibacterial activity against Escherichia coli K88 infected in ICR mouse model of peritoneal sepsis assessed as reduction in edema in renal tubular epithelial cells at 20 mg/kg, ip measured after 10 hrs by H and E staining based analysis; assay type: functional, organism-based
[41] = Toxicity in ICR mouse assessed as change in kidney index at 10 to 40 mg/kg, ip treated for 3 days consecutively; assay type: organism-based; details: in vivo, 72 h, dose 10-40 mg/kg, time 3 day
[42] = system: Staphylococcus epidermidis; assay: Antibacterial activity against Staphylococcus epidermidis 12228 incubated for 12 to 18 hrs by microbroth dilution method; assay type: functional; details: time 12-18 hrs
[43] = Relative hydrophobic moment of compound; assay type: physicochemical

With `CC[C@@H](C)[C@H](NC(=O)CNC(=O)[C@@H]1CCCN1C(=O)[C@H](CCCCN)NC(=O)[C@H](Cc1c[nH]c2ccccc12)NC(=O)[C@@H](NC(=O)[C@H](CCCCN)NC(=O)[C@H](CCCCN)NC(=O)[C@H](Cc1c[nH]c2ccccc12)NC(=O)[C@H](Cc1ccc(O)cc1)NC(=O)[C@H](CCCCN)NC(=O)[C@@H](NC(=O)[C@H](CC(C)C)NC(=O)[C@H](CC(N)=O)NC(=O)CNC(=O)[C@@H](N)CO)[C@@H](C)O)[C@@H](C)CC)C(=O)N[C@@H](CCCCN)C(=O)N[C@@H](CCCCN)C(=O)N[C@@H](Cc1c[nH]c2ccccc12)C(=O)N[C@H](C(=O)N[C@@H](CCCCN)C(=O)O)[C@H](C)CC` the viability at 4 h, 128 µM [1] was > 80%, the Activity (Escherichia coli [2]) was “Dose-dependent-effect” and the Activity (Escherichia coli [3]) was “inactive”. The Activity (Escherichia coli [4]) was “Active”, the Ratio [5] was >2 and the MIC (Bacteria [6]) was 4 µM (≈ 10.4 µg/mL). For the same compound, the Activity (Escherichia coli [7]) was “Active”, the Activity (Escherichia coli [8]) was “Active; Activity Comparable To Colistin Treatment” and the Activity (Escherichia coli [9]) was “Active; Activity Comparable To Colistin Treatment”. The MIC (Lactococcus lactis) was 128 µM (≈ 333 µg/mL), the Activity [10] was 0.391 and the Ratio [11] was >2. For the same compound, the Activity (Escherichia coli [12]) was “Active”, the MIC (Staphylococcus aureus [13]) was 128 µM (≈ 333 µg/mL) and the viability at 4 h, 128 µM [14] was > 80%. The MIC (Bacteria [15]) was 2 µM (≈ 5.21 µg/mL), the MIC [16] was 8 µM (≈ 20.8 µg/mL) and the Activity [17] was “Non-toxic”. For the same compound, the MIC (Enterococcus faecalis) was 128 µM (≈ 333 µg/mL), the Activity [18] was “Non-toxic” and the Ratio [19] was >2. For the same compound, the Activity [20] was “Active”, the Activity (Escherichia coli [21]) was “Active” and the MIC [22] was 128 µM (≈ 333 µg/mL). The MIC (Escherichia coli [23]) was 2 µM (≈ 5.21 µg/mL), the Activity [24] was “Non-toxic” and the Ratio [25] was >2. The Activity (Bacteria [26]) was “inactive”, the inhibition (Escherichia coli [27]) was “Active” and the Activity [28] was “Toxic”. For the same compound, the Activity (Escherichia coli [29]) was “Active”, the MIC (Salmonella typhimurium) was 4 µM (≈ 10.4 µg/mL) and the MIC (Bacteria [30]) was 4 µM (≈ 10.4 µg/mL). The MIC (Escherichia coli [31]) was 4 µM (≈ 10.4 µg/mL), the MIC [32] was 128 µM (≈ 333 µg/mL) and the Ratio [33] was >2. For the same compound, the Activity [34] was “Non-toxic”, the MIC (Staphylococcus aureus [35]) was 128 µM (≈ 333 µg/mL) and the Activity (Escherichia coli [36]) was ~50%. The Ratio [37] was >2, the Ratio [38] was >2 and the Ratio [39] was >2. The Activity (Escherichia coli [40]) was “Active”, the Activity [41] was “Non-toxic” and the MIC [42] was 128 µM (≈ 333 µg/mL). The Activity [43] was 0.583.

Source: ChEMBL document CHEMBL6103615, “Thymidylate Kinase-Targeted Antimicrobial Peptides via Phage Display: A Novel Strategy against Gram-Negative Bacteria” (J Med Chem, 2025)
